Measurements published in US20070141109A1, “Local Deliver of 17-Beta Estradiol for Preventing Vascular Intimal Hyperplasia and for Improving Vascular Endothelium Function after Vascular Injury” (priority 1999, published 2007).
“Also recorded” adds a separate entry of the source.

Legend:
[1] = tested on: endothelium of injured coronary arteries; assay: Reendothelialization by lectin Dolichos biflorus agglutinin immunohistochemistry; format: in vivo, pigs
Procedure: (§1) The animals were euthanized at 4 weeks. Under general anesthesia as described above, exsanguination was performed with replacement by 1 l of 0.9% NaCl solution. The heart was perfusion-fixed in vivo with 2 l of 10% buffered formalin at 200 mm Hg pressure. The heart was then removed, and the coronary arteries were harvested immediately. From the injured segment (identified in relation to side branches), serial sections of 3-5 mm were made, and stored in 10% buffered formalin solution. The sections were then treated with incremental concentrations of alcohol followed by treatment with xylene and paraffin. Slices of 6:m thickness were prepared, and stained with Verhoeff's stain for assessment of tissue response to injury. […] The % of reendothelialization and, the % of endothelial nitric oxide synthase (eNOS) expression were calculated as follows: (the total length of the luminal surface staining positively/the perimeter of the lumen)×100, respectively. Analysis was performed by an independent examiner with no knowledge of the treatment groups to which the sections belonged. […]

[2] = tested on: coronary arteries subjected to PTCA; assay: Response to intracoronary acetylcholine by quantitative coronary angiography after PTCA; format: in vivo, pigs
Procedure: The study protocol was approved by the Animal Care and Ethical Research Committee of the Montreal Heart Institute. Juvenile farm pigs weighing 20-25 kg (1 female, and 8 castrated males) were used. On the day of the experiment, animals received 650 mg of acetylsalicylic acid and 30 mg of nifedipine orally, were premedicated with 6 mg/kg of tiletamine hydrochloride and zolazepam hydrochloride, and were given 0.05 mg of atropine intramuscularly. Under general anesthesia (a mixture of 1-1.5% isoflurane and oxygen enriched air), the right femoral artery was cannulated percutaneously. An 8 Fr arterial sheath was introduced, and […] of lidocaine and 250 U/kg of heparin were administered intra-arterially. Additional heparin was administered during PTCA if needed, to maintain an activated coagulation time of >300 seconds.
An 8 Fr right Amplatz guiding catheter and right Judkins guiding catheter were used for cannulation of the left and right coronary arteries, respectively. A standard balloon catheter (corresponding to a balloon/artery ratio of 1.1-1.3:1) was advanced over a 0.014″ floppy guide wire, and 3 successive 30-second inflations at 10 atm pressure were made with a 30 second interval between each inflation. PTCA was performed on all 3 coronary […] of each animal. For local delivery, the InfusaSleeve catheter (LocalMed Inc.) was used, which permits safe drug delivery with negligible additional injury (7). After balloon dilatation, each coronary artery of an animal was randomized to receive either 600:g of 17-beta estradiol (in 5 ml), vehicle alone (5 ml), or PTCA only. The vehicle 2-hydroxypropyl-beta-cyclodextrin (HPCD), and 17-beta estradiol were obtained from Sigma Chem. Co. For local delivery with the InfusaSleeve catheter, a proximal driving pressure of 10 atm and support balloon pressure of 6 atm were utilized.
All 9 animals underwent cardiac catheterization at the end of 4 weeks. After a baseline coronary angiogram, selective cannulation of the proximal portion of a coronary artery was performed with a single lumen balloon catheter (TotalCross, Schneider) for the administration of vasoactive agents. Acetylcholine (Ach) in increasing concentrations of 10^−7 M, 10^−6 M, 10^−5 M, 10^−4 M, was successively infused through the lumen port of the catheter. Each dose was administered for a duration of 3 minutes at a constant rate of 1 ml/min using an infusion pump. Coronary angiography was performed at the end of each dose. After infusion of the highest concentration of Ach (10^−4 M and angiography, 100:g of nitroglycerin was administered via the lumen port of the catheter, and a coronary angiogram performed. The same protocol was repeated for the other 2 coronary arteries. Heart rate, blood pressure, and ECG were monitored continuously throughout the experiment.
Coronary angiography was performed with a single plane imaging system (Electromed Intl). […] Care was taken to maintain the same angulation during angiography of a segment throughout the procedure. Ionic contrast (MD-76, Mallinckrodt Medical Inc) was used throughout the experiment. Images were captured at a frame speed of 30 frames/sec, and stored digitally. A segment of contrast-filled guiding catheter was included in every frame, for the purpose of calibration. Calibration was performed using the known diameter of the contrast-filled guiding catheter as the reference segment, to avoid error due to magnification. […]

[3] = tested on: human umbilical vein endothelial cells; settings: HUVEC exposed to tumor necrosis factor; cited from earlier work
[4] = tested on: coronary arteries subjected to PTCA; assay: Morphometric analysis of neointima hyperplasia after PTCA and local delivery; format: in vivo, pigs
Procedure: Eighteen juvenile farm pigs (9 female, and 9 castrated male) weighing 20-25 kg were studied. The study was approved by, and conducted in accordance with, the guidelines of the Animal Care and Ethical Research Committee of the Montreal Heart Institute. Before the procedure, animals were given 650 mg of acetylsalicylic acid and 30 mg of nifedipine orally, premedicated with intramuscular injection of 6 mg/kg of a mixture of tiletamine hydrochloride and zolazepam hydrochloride, and given 0.05 mg of atropine. The invasive procedure was performed under general anesthesia with a mixture of isoflurane (1 to 1.5%) and oxygen enriched air. The right femoral artery was cannulated percutaneously, and an 8 Fr arterial sheath was introduced. After arterial access had been obtained, 100 mg of lidocaine and 250 U/kg of heparin were administered intra-arterially via the sheath. Activated coagulation time was maintained at >300 seconds throughout the procedure. […] Standard PTCA equipment was used. An 8 Fr right Amplatz guiding catheter and right Judkins guiding catheter were used for cannulation of the left and right coronary arteries, respectively. PTCA was performed with a balloon size chosen to correspond to a balloon/artery ratio of 1.1-1.3. Three 30-second inflations at 10 atm pressure were performed with a 30-second interval between each inflation. Inflations were performed adjacent to major side branches to facilitate identification during harvesting, taking precaution not to include any side branch in the intended PTCA site. The left anterior descending, left circumflex, and right coronary arteries of each animal were subjected to PTCA. After PTCA, each coronary artery of an animal was randomized to receive either 600 μg of 17-beta estradiol locally, or vehicle alone locally, or PTCA only. The chemicals 17-beta estradiol and its vehicle 2-hydroxypropyl-beta-cyclodextrin (HPCD) were purchased from Sigma Chemical Co. The InfusaSleeve catheter (Local Med, Inc.) was used for local delivery.^12 Five ml of the designated substance was delivered at a driving pressure of 10 atm and support balloon pressure of 6 atm. Of the 18 animals, 2 died a few days after PTCA, and were excluded; thus, 16 animals were analyzed. Twelve animals were euthanized at 28 days, and 4 at 7 days. After premedication and anesthesia, the right internal jugular vein and common carotid artery were cannulated. Following cross-clamping of the descending thoracic aorta exposed via a left lateral thoracotomy, exsanguination was performed, with simultaneous administration of 1 l of 0.9% NaCl solution. The heart was perfusion-fixed in vivo with 2 l of 10% buffered formalin at 200 mm Hg pressure, removed from the animal, and placed in 10% buffered formalin solution. Coronary arteries were then dissected free from surrounding tissues. The site of PTCA was identified in relation to adjacent side branches, which served as landmarks. The injured segment was harvested with a 1 cm normal segment proximal and distal to the injured site. Serial sections 3 to 5 mm long were made from the harvested segment, with a minimum of at least 3 sections (maximum 5) from each PTCA site. Sections were stored in buffered 10% formalin and subjected to dehydration with increasing concentrations of alcohol, followed by treatment with xylene and paraffin. Each section was then cut to slices of 6 μm thickness with a microtome (Olympus cut 4060 E), and stained with Verhoeff's stain for morphometric analysis. Measurements were made with a video microscope (Leitz Diaplan, equipped with a Sony DXC 970 MD color video camera) linked to a 486 personal computer and customized software. A minimum of 3 sections for each injured segment were analyzed and results averaged. Analyses were made by a single observer unaware of the treatment group to which each segment had bee allocated. Randomly selected sections were viewed by a second observer (also blinded to protocol) independently; inter-observer variability was <5%. […]

[5] = tested on: proliferating SMC (PCNA-positive); assay: PCNA immunohistochemistry of the proliferative response to injury; format: in vivo, pigs; settings: 7 days after PTCA
Procedure: Following slicing with a microtome and blocking of non-specific antibodies, the sections were treated with mouse anti-proliferating cell nuclear antigen (PCNA) antibodies and diluted biotinylated goat anti-mouse antibodies. They were then incubated with avidin-biotin (Elite ABC Kit, Vector Laboratories), and developed with 3,3′-diaminobenzidine (Vector Laboratories). They were finally counter-stained with hematoxylin. Porcine liver cells were used as a positive control. For each section, a 6 μm slice counter-stained with hematoxylin without treatment with the primary antibody (mouse anti-PCNA) served as a negative control. The proliferative response to injury was studied by immunohistochemical analysis of samples from animals euthanized at 7 days. The % proliferating SMC was obtained by dividing the number of PCNA-positive SMC by the total number of SMC in each field; separate measurements were made for neointima and media layers. The proliferating cells were identified as SMC by positive staining of parallel sections with a smooth muscle actin antibody. To standardize comparison among treatment groups, measurements were obtained at 4 fixed locations separated by 90° sites for each section, and the results averaged.

[6] = tested on: endothelial nitric oxide synthase (eNOS); assay: eNOS expression by immunohistochemistry; format: in vivo, pigs
Procedure: as §1

[7] = rats, estimated; cited from earlier work
[8] = 600 μg locally after PTCA, 28 days, mean ± SD

SMILES: C[C@]12CC[C@@H]3c4ccc(O)cc4CC[C@H]3[C@@H]1CC[C@@H]2O [17-beta estradiol]
- Reendothelialization ([1]; 4 weeks after PTCA): 90.6±5.5%
- reendothelialization compared to PTCA only and vehicle ([1]; FIG. 4, in words): reendothelialization to a greater degree
- Diameter-basal (basal coronary artery diameter) ([2]; 4 weeks after PTCA and 600 μg locally): 2.53±0.6 mm
- Diameter-post Ach ([2]; Ach 10^−4M, 4 weeks): 2.28±0.61 mm
- coronary artery diameter after nitroglycerin ([2]; after 10^−4 M Ach then nitroglycerin, 4 weeks): 2.61±0.48 mm
- vasoconstrictive response to Ach ([2]; any Ach concentration used, in words): no significant vasoconstrictive response
- changes in heart rate, ECG, or blood pressure ([2]; during the local delivery or intracoronary infusion of vasoactive agents): No changes
- decrease in apoptosis [3]: 50%
- % neointima [4, 8]: 12.16 ± 8.89%
- % stenosis [4, 8]: 15.67 ± 11.13%
- EELref/EELinj (vascular remodeling) [4, 8]: 1.01±0.16
- Neointima area [4, 8]: 0.4 ± 0.3 mm^2
- Neointima/Media area [4, 8]: 0.59 ± 0.48
- Restenotic index [4, 8]: 1.3 ± 0.5
- decrease of neointima formation ([4]; compared to PTCA only, 28 days): 54.6%
- decrease of neointima formation ([4]; compared to vehicle alone, 28 days): 64.9%
- performance of lower doses ([4]; doses of 200 and 400 μg, local): as performing as the dose of 600 μg
- % neointima ([4]; female pigs): 8.29 ± 3.72%
- % stenosis ([4]; female pigs): 11.09 ± 5.16%
- Neointima area ([4]; female pigs): 0.25 ± 0.15 mm^2
- Neointima/Media area ([4]; female pigs): 0.32 ± 0.16
- Restenotic index ([4]; female pigs, 5 segments): 1.37 ± 0.45
- neointima hyperplasia compared to PTCA only or vehicle alone ([4]; local delivery, 28 days, in words): markedly less neointima hyperplasia; also recorded: significantly less neointima hyperplasia
- % neointima ([4]; male pigs): 14.93 ± 10.68%
- % stenosis ([4]; male pigs): 18.93 ± 13.39%
- Neointima area ([4]; male pigs): 0.51 ± 0.34 mm^2
- Neointima/Media area ([4]; male pigs): 0.78 ± 0.55
- Restenotic index ([4]; male pigs, 7 segments): 1.2 ± 0.59
- % PCNA-positive SMC in the media [5]: 0.4±0.3%
- % of PCNA-positive SMC in the neointima [5]: 0.43±0.52%
- Endothelial nitric oxide synthase expression ([6]; 4 weeks after PTCA): 35.6±11.8%
- expression of eNOS compared to PTCA only and vehicle ([6]; FIG. 5, in words): greater expression of eNOS

SMILES: CC(O)COC[C@H]1O[C@@H]2O[C@H]3[C@H](O)[C@@H](O)[C@@H](O[C@H]4[C@H](O)[C@@H](O)[C@@H](O[C@H]5[C@H](O)[C@@H](O)[C@@H](O[C@H]6[C@H](O)[C@@H](O)[C@@H](O[C@H]7[C@H](O)[C@@H](O)[C@@H](O[C@H]8[C@H](O)[C@@H](O)[C@@H](O[C@H]1[C@H](O)[C@H]2O)O[C@@H]8COCC(C)O)O[C@@H]7COCC(C)O)O[C@@H]6COCC(C)O)O[C@@H]5COCC(C)O)O[C@@H]4COCC(C)O)O[C@@H]3COCC(C)O (stereo partly drawn) [HPCD, 2-hydroxypropyl-beta-cyclodextrin]
- toxic dose (nephrotoxicity) [7]: 200 mg/kg
